SMILES strings stand for the structures.

These results are taken from patent publication US8778990B2, “Betulinic acid derivatives and methods of use thereof” (Trustees of Dartmouth College, priority 2008, dated 2014).

The subject of one series is RAW264.7 macrophages. In words: Inhibition of IFNγ-induced NO production (Griess reagent). The settings on record: Mus musculus; RAW264.7, 20 ng/mL IFNγ, 2 h pre-treatment, 24 h. The format is cell-based. As for the experimental part:
RAW264.7 macrophages were pre-treated with DMSO or drugs at various concentrations (nM) for 2 hours, and subsequently treated with 20 ng/ml IFNγ for 24 hours. NO concentration in media was determined using a Griess reagent system; cell viability was determined using WST-1 reagent. The betulinic acid derivatives are identified by their TP numbers, as shown herein and described in Example 5.
Nitric Oxide Production and Cell Viability. RAW264.7 macrophages were pre-treated with DMSO or drugs for 2 hours, and subsequently treated with recombinant mouse IFN-γ (Sigma) for 24 hours. NO concentration in media was determined using the Griess reagent system (Promega). Cell viability was determined using WST-1 reagent (Roche).
For `C=C(C)[C@@H]1CC[C@]2(C#N)CC[C@]3(C)[C@H](CC[C@@H]4[C@@]5(C)C=C(C#N)C(=O)C(C)(C)[C@@H]5CC[C@]43C)[C@@H]12` [TP-345, 2-Cyano-3-oxolupa-1,20(29)-dien-28-onitrile], the IC50 was in the range of 10 to 160 nM. Take `C=C(C)[C@@H]1CC[C@]2(C(=O)n3ccnc3)CC[C@]3(C)[C@H](CC[C@@H]4[C@@]5(C)C=C(C#N)C(=O)C(C)(C)[C@@H]5CC[C@]43C)[C@@H]12` [TP-292]: the IC50 fell in the range of 71 to 100 nM.

Regarding `C=C(C)[C@@H]1CC[C@]2(C(=O)NCC(F)F)CC[C@]3(C)[C@H](CC[C@@H]4[C@@]5(C)C=C(C#N)C(=O)C(C)(C)[C@@H]5CC[C@]43C)[C@@H]12` [TP-343, 2-Cyano-N-(2,2-difluoroethyl)-3-oxolupa-1,20(29)-dien-28-amide], the IC50 turned out to be 130 nM. As for `C=C(C)[C@@H]1CC[C@]2(C(=O)NCC)CC[C@]3(C)[C@H](CCC4[C@@]5(C)C=C(C#N)C(=O)C(C)(C)[C@@H]5CC[C@]43C)[C@@H]12` (stereo partly shown) [TP-321, reference compound], the IC50 worked out at 88 nM. With `C=C(C)[C@@H]1CC[C@]2(C(=O)NCC(F)(F)F)CC[C@]3(C)[C@H](CC[C@@H]4[C@@]5(C)C=C(C#N)C(=O)C(C)(C)[C@@H]5CC[C@]43C)[C@@H]12` [TP-342, 2-Cyano-N-(2,2,2-trifluoroethyl)-3-oxolupa-1,20(29)-dien-28-amide], the IC50 was 380 nM. As for `C=C(C)[C@@H]1CC[C@]2(C(=O)NCCF)CC[C@]3(C)[C@H](CC[C@@H]4[C@@]5(C)C=C(C#N)C(=O)C(C)(C)[C@@H]5CC[C@]43C)[C@@H]12` [TP-344, 2-Cyano-N-(2-fluoroethyl)-3-oxolupa-1,20(29)-dien-28-amide], the IC50 came out at 180 nM.

System in the next series: not listed separately
In words: TP levels in mouse brain after dietary dosing (LC/MS). The format is in vivo. The settings on record: CD-1 mice fed 200 or 400 mg/kg diet for 3.5 days; compared with TP-319. As for the experimental part:
CD-1 mice were fed either 200 or 400 mg/kg diet of either TP-319 or TP-500 for 3.5 days, and TP levels in the brains of the mice were analyzed by LC/MS. The structures of TP-319 and TP-500 are provided herein.
As to `CC1(C)CC[C@]2(C(=O)NCC(F)(F)F)CC[C@]3(C)[C@H](C(=O)C=C4[C@@]5(C)C=C(C#N)C(=O)C(C)(C)[C@@H]5CC[C@]43C)[C@@H]2C1` [TP-500, reference compound], the “concentration in the brain” value is “significantly higher concentration in the brain than TP-319”.

Broadly, the IC50 is the concentration needed to halve the response being measured.
